Measured values taken from ChEMBL document CHEMBL5058649, “Data for DCP probe BAY 1816032” (2022).

How the values were obtained:
[1] = molecular target: Proto-oncogene tyrosine-protein kinase ROS (Homo sapiens) (UniProt P08922); experiment: ROS1 DiscoveRx kinase panel; details: Compound concentration 1.0 uM
[2] = molecular target: Glutamate receptor ionotropic, kainate (Rattus norvegicus) (UniProt P22756+Q01812+P42260+P42264+Q63273); experiment: Inhibition of Glutamate, Kainate at 10 µM in the Eurofins-Panlabs radioligand binding assay (Eurofins_assay_232700); details: Compound concentration 10.0 uM
[3] = molecular target: Serine/threonine-protein kinase Chk2 (Homo sapiens) (UniProt O96017); experiment: CHEK2 DiscoveRx kinase panel; details: Compound concentration 1.0 uM
[4] = molecular target: Testis-specific serine/threonine-protein kinase 3 (Homo sapiens) (UniProt Q96PN8); experiment: TSSK3 DiscoveRx kinase panel; details: Compound concentration 1.0 uM
[5] = molecular target: AP2-associated protein kinase 1 (Homo sapiens) (UniProt Q2M2I8); experiment: AAK1 DiscoveRx kinase panel; details: Compound concentration 1.0 uM
[6] = molecular target: Protein kinase C theta type (Homo sapiens) (UniProt Q04759); experiment: PRKCQ DiscoveRx kinase panel; details: Compound concentration 1.0 uM
[7] = molecular target: Fibroblast growth factor receptor 1 (Homo sapiens) (UniProt P11362); experiment: FGFR1 DiscoveRx kinase panel; details: Compound concentration 1.0 uM
[8] = molecular target: Cytoplasmic tyrosine-protein kinase BMX (Homo sapiens) (UniProt P51813); experiment: BMX DiscoveRx kinase panel; details: Compound concentration 1.0 uM
[9] = molecular target: Bone morphogenetic protein receptor type-1A (Homo sapiens) (UniProt P36894); experiment: BMPR1A DiscoveRx kinase panel; details: Compound concentration 1.0 uM
[10] = molecular target: Cyclin-dependent kinase 14 (Homo sapiens) (UniProt O94921); experiment: PFTK1 DiscoveRx kinase panel; details: Compound concentration 1.0 uM
[11] = molecular target: Tyrosine-protein kinase HCK (Homo sapiens) (UniProt P08631); experiment: HCK DiscoveRx kinase panel; details: Compound concentration 1.0 uM
[12] = molecular target: Mitogen-activated protein kinase kinase kinase kinase 4 (Homo sapiens) (UniProt O95819); experiment: MAP4K4 DiscoveRx kinase panel; details: Compound concentration 1.0 uM
[13] = molecular target: Non-receptor tyrosine-protein kinase TNK1 (Homo sapiens) (UniProt Q13470); experiment: TNK1 DiscoveRx kinase panel; details: Compound concentration 1.0 uM
[14] = molecular target: Misshapen-like kinase 1 (Homo sapiens) (UniProt Q8N4C8); experiment: MINK DiscoveRx kinase panel; details: Compound concentration 1.0 uM
[15] = molecular target: Sigma non-opioid intracellular receptor 1 (Homo sapiens, UniProt Q99720); experiment: Inhibition of Sigma 1 at 10 µM in the Eurofins-Panlabs radioligand binding assay (Eurofins_assay_278110); set-up: ligand concentration 8 nM; details: Compound concentration 10.0 uM
[16] = molecular target: Mitogen-activated protein kinase 1 (Homo sapiens) (UniProt P28482); experiment: ERK2 DiscoveRx kinase panel; details: Compound concentration 1.0 uM
[17] = molecular target: Sodium-dependent noradrenaline transporter (Homo sapiens, UniProt P23975); details: Compound concentration 10.0 uM
[18] = molecular target: Gastrin/cholecystokinin type B receptor (Homo sapiens) (UniProt P32239); experiment: Cholecystokinin CCK2 (CCKB) Eurofins-Panlabs radioligand binding assay; details: Compound concentration 10.0 uM
[19] = molecular target: Mitogen-activated protein kinase 8 (Homo sapiens) (UniProt P45983); experiment: JNK1 DiscoveRx kinase panel; details: Compound concentration 1.0 uM
[20] = molecular target: Ribosomal protein S6 kinase alpha-6 (Homo sapiens) (UniProt Q9UK32); experiment: RSK4(Kin.Dom.2-C-terminal) DiscoveRx kinase panel; details: Compound concentration 1.0 uM
[21] = molecular target: Serine/threonine-protein kinase 16 (Homo sapiens) (UniProt O75716); experiment: STK16 DiscoveRx kinase panel; details: Compound concentration 1.0 uM
HeLa = experiment: HeLa (presence of 3 nM Paclitaxel) cell line Proliferation assay; assay type: functional, Homo sapiens; details: time 4 day
[22] = molecular target: Serine/threonine-protein kinase LATS1 (Homo sapiens) (UniProt O95835); experiment: LATS1 DiscoveRx kinase panel; details: Compound concentration 1.0 uM
[23] = molecular target: Dual specificity mitogen-activated protein kinase kinase 7 (Homo sapiens) (UniProt O14733); experiment: MKK7 DiscoveRx kinase panel; details: Compound concentration 1.0 uM
[24] = molecular target: Ephrin type-B receptor 2 (Homo sapiens) (UniProt P29323); experiment: EPHB2 DiscoveRx kinase panel; details: Compound concentration 1.0 uM
[25] = molecular target: Gamma-aminobutyric acid type B receptor subunit 1 (Homo sapiens) (UniProt Q9UBS5); experiment: Inhibition of GABAB1A at compound concentration of 10.0 uM in the Eurofins-Panlabs radioligand binding assay (Eurofins_assay_228610); set-up: ligand concentration 4 nM; details: Compound concentration 10.0 uM
[26] = molecular target: Dual specificity mitogen-activated protein kinase kinase 3 (Homo sapiens) (UniProt P46734); experiment: MEK3 DiscoveRx kinase panel; details: Compound concentration 1.0 uM
[27] = molecular target: Fibroblast growth factor receptor 4 (Homo sapiens) (UniProt P22455); experiment: FGFR4 DiscoveRx kinase panel; details: Compound concentration 1.0 uM
[28] = molecular target: 5-hydroxytryptamine receptor 2A (Homo sapiens) (UniProt P28223); experiment: Serotonin (5-Hydroxytryptamine) 5-HT2A Eurofins-Panlabs radioligand binding assay; details: Compound concentration 10.0 uM
[29] = molecular target: GABA-A receptor; anion channel (Rattus norvegicus) (UniProt O09028+P15431+P18506+P18508+P19969+P20236+P23574+P23576+P28471+P28473+P30191+P62813+P63079+P63138+Q91ZM7+Q9ES14); details: Compound concentration 10.0 uM
[30] = molecular target: Phosphatidylinositol 5-phosphate 4-kinase type-2 beta (Homo sapiens) (UniProt P78356); experiment: PIP5K2B DiscoveRx kinase panel; details: Compound concentration 1.0 uM
[31] = molecular target: Serine/threonine-protein kinase RIO2 (Homo sapiens) (UniProt Q9BVS4); experiment: RIOK2 DiscoveRx kinase panel; details: Compound concentration 1.0 uM
[32] = molecular target: Serine/threonine-protein kinase RIO3 (Homo sapiens) (UniProt O14730); experiment: RIOK3 DiscoveRx kinase panel; details: Compound concentration 1.0 uM
[33] = molecular target: 5-hydroxytryptamine receptor 1A (Homo sapiens, UniProt P08908); experiment: GPCRScan assay: inhibition of 5-HT1A; set-up: radioligand conc. used [nm] 0.5 – 1.0, parental cells stable CHO
[34] = molecular target: Cyclin-G-associated kinase (Homo sapiens) (UniProt O14976); experiment: GAK DiscoveRx kinase panel; details: Compound concentration 1.0 uM
[35] = molecular target: D(3) dopamine receptor (Homo sapiens) (UniProt P35462); details: Compound concentration 10.0 uM
[36] = molecular target: Cyclin-dependent kinase 17 (Homo sapiens) (UniProt Q00537); experiment: PCTK2 DiscoveRx kinase panel; details: Compound concentration 1.0 uM
[37] = molecular target: Cyclin-dependent kinase-like 3 (Homo sapiens) (UniProt Q8IVW4); experiment: CDKL3 DiscoveRx kinase panel; details: Compound concentration 1.0 uM
[38] = molecular target: Cyclin-dependent kinase 15 (Homo sapiens) (UniProt Q96Q40); experiment: PFTAIRE2 DiscoveRx kinase panel; details: Compound concentration 1.0 uM
[39] = molecular target: Tyrosine-protein kinase Fyn (Homo sapiens) (UniProt P06241); experiment: FYN DiscoveRx kinase panel; details: Compound concentration 1.0 uM
[40] = molecular target: D(2) dopamine receptor (Homo sapiens) (UniProt P14416); details: Compound concentration 10.0 uM
[41] = molecular target: Serine/threonine-protein kinase PRP4 homolog (Homo sapiens) (UniProt Q13523); experiment: PRP4 DiscoveRx kinase panel; details: Compound concentration 1.0 uM
[42] = molecular target: Serine/threonine-protein kinase D2 (Homo sapiens) (UniProt Q9BZL6); experiment: PRKD2 DiscoveRx kinase panel; details: Compound concentration 1.0 uM
[43] = molecular target: Ribosomal protein S6 kinase alpha-3 (Homo sapiens) (UniProt P51812); experiment: RSK2(Kin.Dom.2-C-terminal) DiscoveRx kinase panel; details: Compound concentration 1.0 uM
[44] = molecular target: Tyrosine-protein kinase FRK (Homo sapiens) (UniProt P42685); experiment: FRK DiscoveRx kinase panel; details: Compound concentration 1.0 uM
[45] = molecular target: Casein kinase I isoform gamma-2 (Homo sapiens) (UniProt P78368); experiment: CSNK1G2 DiscoveRx kinase panel; details: Compound concentration 1.0 uM

Chain of 5-hydroxytryptamine receptor 1A (P08908 whole entry): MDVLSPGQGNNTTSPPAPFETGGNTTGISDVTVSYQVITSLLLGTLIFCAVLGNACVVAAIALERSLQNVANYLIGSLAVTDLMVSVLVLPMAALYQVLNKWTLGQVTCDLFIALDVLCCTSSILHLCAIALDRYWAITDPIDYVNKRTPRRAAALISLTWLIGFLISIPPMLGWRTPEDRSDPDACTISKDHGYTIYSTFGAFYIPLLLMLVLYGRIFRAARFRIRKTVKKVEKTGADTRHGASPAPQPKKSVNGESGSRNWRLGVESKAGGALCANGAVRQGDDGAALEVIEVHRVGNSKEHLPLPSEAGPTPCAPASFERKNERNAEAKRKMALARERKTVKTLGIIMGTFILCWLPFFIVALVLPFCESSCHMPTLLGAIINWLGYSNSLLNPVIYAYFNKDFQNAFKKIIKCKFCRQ
Chain of Bone morphogenetic protein receptor type-1A (Homo sapiens) (P36894 whole entry): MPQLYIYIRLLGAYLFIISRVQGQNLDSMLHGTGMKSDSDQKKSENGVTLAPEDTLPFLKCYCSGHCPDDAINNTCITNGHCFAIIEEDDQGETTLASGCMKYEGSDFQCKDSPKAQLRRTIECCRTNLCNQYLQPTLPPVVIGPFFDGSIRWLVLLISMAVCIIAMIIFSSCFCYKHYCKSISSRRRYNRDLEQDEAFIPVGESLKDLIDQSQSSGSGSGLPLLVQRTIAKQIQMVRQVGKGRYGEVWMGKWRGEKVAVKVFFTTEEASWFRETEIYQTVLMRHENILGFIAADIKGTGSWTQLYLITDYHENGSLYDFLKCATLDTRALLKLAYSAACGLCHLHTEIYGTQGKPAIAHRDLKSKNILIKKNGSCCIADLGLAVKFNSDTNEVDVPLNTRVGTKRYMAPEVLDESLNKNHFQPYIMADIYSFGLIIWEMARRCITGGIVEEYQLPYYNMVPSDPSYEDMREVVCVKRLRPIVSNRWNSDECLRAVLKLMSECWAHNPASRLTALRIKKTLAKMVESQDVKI
Chain of Gamma-aminobutyric acid type B receptor subunit 1 (Homo sapiens) (Q9UBS5 whole entry): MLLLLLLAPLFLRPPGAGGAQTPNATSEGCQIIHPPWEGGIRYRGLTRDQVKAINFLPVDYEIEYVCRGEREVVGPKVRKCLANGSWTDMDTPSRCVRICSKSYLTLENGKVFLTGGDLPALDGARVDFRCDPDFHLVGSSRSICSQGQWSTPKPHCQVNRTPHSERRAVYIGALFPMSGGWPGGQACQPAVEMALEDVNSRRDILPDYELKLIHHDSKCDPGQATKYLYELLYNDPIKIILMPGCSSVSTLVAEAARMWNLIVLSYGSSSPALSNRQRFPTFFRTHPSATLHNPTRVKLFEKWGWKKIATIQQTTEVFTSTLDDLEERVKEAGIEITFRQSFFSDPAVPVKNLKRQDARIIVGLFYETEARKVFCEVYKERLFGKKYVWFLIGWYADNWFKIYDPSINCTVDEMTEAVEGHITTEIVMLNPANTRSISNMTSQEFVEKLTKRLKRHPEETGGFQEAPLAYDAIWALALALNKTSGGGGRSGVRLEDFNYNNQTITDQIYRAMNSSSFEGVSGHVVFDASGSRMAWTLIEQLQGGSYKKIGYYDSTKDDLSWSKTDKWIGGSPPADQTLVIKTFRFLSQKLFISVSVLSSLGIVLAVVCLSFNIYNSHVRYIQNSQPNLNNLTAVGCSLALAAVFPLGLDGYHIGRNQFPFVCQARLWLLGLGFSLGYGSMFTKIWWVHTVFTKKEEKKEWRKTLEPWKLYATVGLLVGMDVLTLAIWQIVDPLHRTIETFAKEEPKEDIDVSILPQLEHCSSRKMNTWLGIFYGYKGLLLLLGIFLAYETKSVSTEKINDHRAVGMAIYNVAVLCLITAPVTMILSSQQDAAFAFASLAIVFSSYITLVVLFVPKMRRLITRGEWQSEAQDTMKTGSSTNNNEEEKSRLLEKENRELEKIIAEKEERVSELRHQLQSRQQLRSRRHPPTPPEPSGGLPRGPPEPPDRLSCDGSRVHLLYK
Chain of Ephrin type-B receptor 2 (Homo sapiens) (P29323 whole entry): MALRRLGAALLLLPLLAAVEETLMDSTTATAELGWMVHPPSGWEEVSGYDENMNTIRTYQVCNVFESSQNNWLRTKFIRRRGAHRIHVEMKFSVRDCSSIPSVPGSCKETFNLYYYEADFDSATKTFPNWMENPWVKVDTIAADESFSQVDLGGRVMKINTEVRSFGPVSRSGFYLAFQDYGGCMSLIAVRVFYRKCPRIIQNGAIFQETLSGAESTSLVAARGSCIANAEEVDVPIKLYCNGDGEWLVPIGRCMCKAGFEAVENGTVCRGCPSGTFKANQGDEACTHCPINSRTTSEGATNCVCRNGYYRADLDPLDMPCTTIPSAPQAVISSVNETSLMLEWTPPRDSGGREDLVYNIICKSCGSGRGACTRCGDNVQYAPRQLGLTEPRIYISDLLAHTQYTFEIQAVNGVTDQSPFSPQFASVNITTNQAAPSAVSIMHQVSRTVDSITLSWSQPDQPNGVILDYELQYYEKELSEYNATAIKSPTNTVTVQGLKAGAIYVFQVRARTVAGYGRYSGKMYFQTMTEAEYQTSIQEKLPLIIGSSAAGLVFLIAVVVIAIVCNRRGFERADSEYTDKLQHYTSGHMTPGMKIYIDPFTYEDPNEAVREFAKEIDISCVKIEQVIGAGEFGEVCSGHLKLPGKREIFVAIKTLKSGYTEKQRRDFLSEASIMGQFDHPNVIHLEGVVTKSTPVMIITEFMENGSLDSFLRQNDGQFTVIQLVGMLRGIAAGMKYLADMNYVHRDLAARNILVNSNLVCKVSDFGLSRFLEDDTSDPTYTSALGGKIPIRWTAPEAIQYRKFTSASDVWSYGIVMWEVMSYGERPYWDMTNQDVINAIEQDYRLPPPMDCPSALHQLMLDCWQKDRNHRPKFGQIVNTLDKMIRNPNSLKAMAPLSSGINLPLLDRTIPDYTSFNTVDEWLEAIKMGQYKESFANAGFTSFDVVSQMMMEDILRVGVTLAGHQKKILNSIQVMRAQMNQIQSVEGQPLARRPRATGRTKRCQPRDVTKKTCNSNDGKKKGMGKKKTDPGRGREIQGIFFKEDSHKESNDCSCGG
Chain of Mitogen-activated protein kinase 1 (Homo sapiens) (P28482 whole entry): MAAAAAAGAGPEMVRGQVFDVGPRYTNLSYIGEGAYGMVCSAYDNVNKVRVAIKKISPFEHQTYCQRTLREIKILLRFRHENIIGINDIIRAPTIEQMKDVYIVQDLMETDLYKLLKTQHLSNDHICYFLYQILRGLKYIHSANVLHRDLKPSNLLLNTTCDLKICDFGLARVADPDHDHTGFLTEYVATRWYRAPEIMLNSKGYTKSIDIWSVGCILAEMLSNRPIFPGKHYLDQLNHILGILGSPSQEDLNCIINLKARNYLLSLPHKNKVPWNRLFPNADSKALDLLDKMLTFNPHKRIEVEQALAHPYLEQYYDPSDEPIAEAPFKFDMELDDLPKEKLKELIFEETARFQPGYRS
Chain of Testis-specific serine/threonine-protein kinase 3 (Homo sapiens) (Q96PN8 whole entry): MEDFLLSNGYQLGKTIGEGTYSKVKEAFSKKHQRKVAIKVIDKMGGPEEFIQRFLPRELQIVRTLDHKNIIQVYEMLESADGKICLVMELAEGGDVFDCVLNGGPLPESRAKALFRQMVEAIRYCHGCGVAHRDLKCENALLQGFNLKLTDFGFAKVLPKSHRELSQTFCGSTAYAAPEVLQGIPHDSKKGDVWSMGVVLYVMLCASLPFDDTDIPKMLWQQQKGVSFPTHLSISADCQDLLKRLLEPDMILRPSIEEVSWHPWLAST
Chain of Mitogen-activated protein kinase kinase kinase kinase 4 (Homo sapiens) (O95819 2-1239 limits assumed): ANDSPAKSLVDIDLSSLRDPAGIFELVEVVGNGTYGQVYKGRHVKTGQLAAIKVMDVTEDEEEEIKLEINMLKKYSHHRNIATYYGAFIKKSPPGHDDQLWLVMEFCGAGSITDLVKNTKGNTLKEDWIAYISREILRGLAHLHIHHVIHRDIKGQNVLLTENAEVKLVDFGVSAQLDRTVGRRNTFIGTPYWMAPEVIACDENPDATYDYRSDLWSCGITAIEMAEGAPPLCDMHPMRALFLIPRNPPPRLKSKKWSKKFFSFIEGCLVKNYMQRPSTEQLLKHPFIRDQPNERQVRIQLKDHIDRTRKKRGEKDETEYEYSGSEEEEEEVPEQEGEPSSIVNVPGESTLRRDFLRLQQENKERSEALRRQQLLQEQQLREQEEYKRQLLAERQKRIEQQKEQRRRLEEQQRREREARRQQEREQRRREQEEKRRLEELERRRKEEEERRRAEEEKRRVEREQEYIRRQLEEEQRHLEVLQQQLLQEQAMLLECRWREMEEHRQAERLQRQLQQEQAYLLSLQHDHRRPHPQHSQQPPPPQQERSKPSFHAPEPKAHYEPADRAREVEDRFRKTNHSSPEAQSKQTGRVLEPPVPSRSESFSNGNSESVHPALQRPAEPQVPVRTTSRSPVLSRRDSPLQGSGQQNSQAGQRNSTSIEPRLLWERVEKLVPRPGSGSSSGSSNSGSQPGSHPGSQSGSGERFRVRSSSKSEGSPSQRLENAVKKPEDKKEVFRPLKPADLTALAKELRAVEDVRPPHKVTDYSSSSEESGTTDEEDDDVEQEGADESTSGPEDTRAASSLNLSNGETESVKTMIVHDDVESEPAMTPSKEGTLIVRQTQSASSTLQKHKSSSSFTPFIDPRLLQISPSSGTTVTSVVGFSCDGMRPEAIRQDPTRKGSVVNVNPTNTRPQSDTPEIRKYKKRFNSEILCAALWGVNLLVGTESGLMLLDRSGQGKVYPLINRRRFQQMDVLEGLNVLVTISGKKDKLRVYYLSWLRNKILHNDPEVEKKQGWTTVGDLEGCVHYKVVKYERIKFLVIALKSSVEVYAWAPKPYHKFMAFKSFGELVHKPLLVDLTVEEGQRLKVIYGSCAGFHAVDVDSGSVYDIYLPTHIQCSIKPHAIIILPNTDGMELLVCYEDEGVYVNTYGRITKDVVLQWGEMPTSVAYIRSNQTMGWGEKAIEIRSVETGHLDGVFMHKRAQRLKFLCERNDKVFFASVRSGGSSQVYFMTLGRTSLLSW

Which residual activity [1] does the source give for `COc1cnccc1Nc1nc(-c2nn(Cc3c(F)cc(OCCO)cc3F)c3ccccc23)ncc1OC` here?
The residual activity was 100%.

What about the inhibition [2] of the same compound?
Its inhibition is -1%.

What about the residual activity [3] of the same compound?
Its residual activity is 100%.

What about the residual activity [4] of the same compound?
Its residual activity is 90%.

What about the residual activity [5] of the same compound?
Its residual activity is 100%.

And the residual activity [6]?
Its residual activity is 77%.

What about the residual activity [7] of the same compound?
The residual activity was 87%.

What about the residual activity [8] of the same compound?
The residual activity was 100%.

And the residual activity [9]?
Its residual activity is 74%.

What about the residual activity [10] of the same compound?
Its residual activity is 87%.

What about the residual activity [11] of the same compound?
Its residual activity is 100%.

What about the residual activity [12] of the same compound?
The residual activity was 62%.

And the residual activity [13]?
The residual activity was 62%.

What about the residual activity [14] of the same compound?
Its residual activity is 76%.

What about the inhibition [15] of the same compound?
Its inhibition is -3%.

And the residual activity [16]?
The residual activity was 93%.

And the inhibition [17]?
Its inhibition is 26%.

And the inhibition [18]?
The inhibition was 1%.

What about the residual activity [19] of the same compound?
Its residual activity is 79%.

What about the residual activity [20] of the same compound?
Its residual activity is 100%.

What about the residual activity [21] of the same compound?
The residual activity was 65%.

And the “Cell Proliferation IC50” value (HeLa)?
Its value is 0.063 µM.

And the residual activity [22]?
The residual activity was 95%.

And the residual activity [23]?
Its residual activity is 98%.

And the residual activity [24]?
Its residual activity is 100%.

And the inhibition [25]?
Its inhibition is -2%.

What about the residual activity [26] of the same compound?
The residual activity was 100%.

What about the residual activity [27] of the same compound?
Its residual activity is 98%.

And the inhibition [28]?
The inhibition was 22%.

What about the inhibition [29] of the same compound?
Its inhibition is 60%.

And the residual activity [30]?
The residual activity was 91%.

And the residual activity [31]?
Its residual activity is 100%.

What about the residual activity [32] of the same compound?
The residual activity was 90%.

And the Ki [33]?
The Ki was 9.44 µM.

What about the residual activity [34] of the same compound?
The residual activity was 77%.

And the inhibition [35]?
Its inhibition is 1.89%.

What about the residual activity [36] of the same compound?
The residual activity was 87%.

And the residual activity [37]?
Its residual activity is 89%.

And the residual activity [38]?
The residual activity was 96%.

What about the residual activity [39] of the same compound?
Its residual activity is 89%.

And the inhibition [40]?
The inhibition was 4%.

And the residual activity [41]?
Its residual activity is 96%.

And the residual activity [42]?
Its residual activity is 100%.

What about the residual activity [43] of the same compound?
The residual activity was 98%.

And the residual activity [44]?
The residual activity was 85%.

And the residual activity [45]?
Its residual activity is 78%.
